Biological target: PD-1/PD-L1 (Homo sapiens (Human), UniProt Q9NZQ7)
Test: PD-1/PD-L1 biochemical protein-protein interaction assay (ALPHA)
Settings: 0.3 nM His tagged PD-L1, 2.5 nM biotinylated Fc-PD-1, 60 minutes at 25° C., read-out: IC50 PD-L1-PD1

Chain of PD-1/PD-L1 (Q9NZQ7 19-238): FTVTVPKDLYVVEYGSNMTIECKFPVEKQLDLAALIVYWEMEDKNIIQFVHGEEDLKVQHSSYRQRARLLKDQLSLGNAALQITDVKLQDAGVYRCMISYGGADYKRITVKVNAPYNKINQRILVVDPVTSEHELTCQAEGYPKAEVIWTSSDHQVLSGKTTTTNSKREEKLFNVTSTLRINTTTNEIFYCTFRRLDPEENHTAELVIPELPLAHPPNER

| Structure (SMILES) | IC50 [pM] |
| --- | --- |
| COc1nc(-c2cccc(-c3cccc(-c4cnc(CNC[C@@H]5CCC(=O)N5)c(OC)n4)c3Cl)c2Cl)ccc1CN1CC(C)(CO)C1 [compound 156] | 84 |
| COc1nc(-c2cccc(-c3cccc(-c4cnc(CNC[C@@H]5CCC(=O)N5)c(OC)n4)c3Cl)c2Cl)ccc1CN1CC(CO)C1 [compound 157] | 64 |
| COc1nc(-c2cccc(-c3cccc(-c4cnc(CNC[C@@H]5CCC(=O)N5)c(OC)n4)c3Cl)c2Cl)ccc1CN1CCC(C)(O)CC1 [compound 158] | 162 |
| COc1nc(-c2cccc(-c3cccc(-c4cnc(CNC[C@@H]5CCC(=O)N5)c(OC)n4)c3Cl)c2Cl)ccc1CN1CC[C@](C)(O)C1 [compound 159] | 150 |
| COc1nc(-c2cccc(-c3cccc(-c4cnc(CNC[C@@H]5CCC(=O)N5)c(OC)n4)c3Cl)c2Cl)ccc1CN1CCC(CO)CC1 [compound 160] | 128 |
| COc1nc(-c2cccc(-c3cccc(-c4cnc(CNC[C@@H]5CCC(=O)N5)c(OC)n4)c3Cl)c2Cl)ccc1CNCc1nc(=O)o[nH]1 [compound 161] | 167 |
| COc1nc(-c2cccc(-c3cccc(-c4cnc(CNC[C@@H]5CCC(=O)N5)c(OC)n4)c3Cl)c2Cl)ccc1CNC1CCOCC1 [compound 162] | 116 |
| COc1nc(-c2cccc(-c3cccc(-c4cnc(CNC[C@@H]5CCC(=O)N5)c(OC)n4)c3Cl)c2Cl)ccc1CN1CCC(C(N)=O)CC1 [compound 163] | 177 |
| COc1nc(-c2cccc(-c3cccc(-c4cnc(CNC[C@@H]5CCC(=O)N5)c(OC)n4)c3Cl)c2Cl)ccc1CN1CC(O)C1 [compound 164] | 122 |
| COc1nc(-c2cccc(-c3cccc(-c4cnc(CNC[C@@H]5CCC(=O)N5)c(OC)n4)c3Cl)c2Cl)ccc1CN[C@@H]1COC[C@H]1O [compound 165] | 187 |
| COc1nc(-c2cccc(-c3cccc(-c4cnc(CNC[C@@H]5CCC(=O)N5)c(OC)n4)c3Cl)c2Cl)ccc1CN[C@H]1CNC(=O)C1 [compound 166] | 233 |
| COc1nc(-c2cccc(-c3cccc(-c4cnc(CNC[C@@H]5CCC(=O)N5)c(OC)n4)c3Cl)c2Cl)ccc1CN[C@@H]1CNC(=O)C1 [compound 167] | 262 |
| COc1nc(-c2cccc(-c3cccc(-c4cnc(CNC[C@@H]5CCC(=O)N5)c(OC)n4)c3Cl)c2Cl)ccc1CN1CC2(CNC(=O)N2)C1 [compound 168] | 196 |
| COc1nc(-c2cccc(-c3cccc(-c4cnc(CNC[C@@H]5CCC(=O)N5)c(OC)n4)c3Cl)c2Cl)ccc1CN[C@H]1CCNC1=O [compound 169] | 344 |
| COc1nc(-c2cccc(-c3cccc(-c4cnc(CNC[C@@H]5CCC(=O)N5)c(OC)n4)c3Cl)c2Cl)ccc1CN[C@@H]1CCOC1 [compound 170] | 227 |
| COc1nc(-c2cccc(-c3cccc(-c4cnc(CNC[C@@H]5CCC(=O)N5)c(OC)n4)c3Cl)c2Cl)ccc1CN[C@H]1CCOC1 [compound 171] | 208 |
| COc1nc(-c2cccc(-c3cccc(-c4cnc(CNC[C@H]5C[C@@H](O)C5)c(OC)n4)c3Cl)c2Cl)cnc1CNC[C@@H]1CCC(=O)N1 [compound 172] | 222 |

| Structure (SMILES) | IC50 [pM] |
| --- | --- |
| COc1nc(-c2cccc(-c3cccc(-c4cnc(CN5CC(OC)C5)c(OC)n4)c3Cl)c2Cl)cnc1CNC[C@@H]1CCC(=O)N1 [compound 173] | 209 |
| COc1nc(-c2cccc(-c3cccc(-c4cnc(CN5CCC(C)(O)C5)c(OC)n4)c3Cl)c2Cl)cnc1CNC[C@@H]1CCC(=O)N1 (some centres unmarked) [compound 174] | 219 |
| COc1nc(-c2cccc(-c3cccc(-c4cnc(CN5CC(C)(CO)C5)c(OC)n4)c3Cl)c2Cl)cnc1CNC[C@@H]1CCC(=O)N1 [compound 175] | 110 |
| COc1nc(-c2cccc(-c3cccc(-c4cnc(CN5CC(CO)C5)c(OC)n4)c3Cl)c2Cl)cnc1CNC[C@@H]1CCC(=O)N1 [compound 176] | 111 |
| COc1nc(-c2cccc(-c3cccc(-c4cnc(CNC5CCC(F)C5)c(OC)n4)c3Cl)c2Cl)cnc1CNC[C@@H]1CCC(=O)N1 (some centres unmarked) [compound 177] | 330 |
| COc1nc(-c2cccc(-c3cccc(-c4cnc(CN[C@@H]5C[C@@H]5F)c(OC)n4)c3Cl)c2Cl)cnc1CNC[C@@H]1CCC(=O)N1 [compound 178] | 553 |
| COc1nc(-c2cccc(-c3cccc(-c4cnc(CNC[C@@H]5CCC(=O)N5)c(OC)n4)c3Cl)c2Cl)cnc1CNCC1CC1 [compound 179] | 211 |
| COc1nc(-c2cccc(-c3cccc(-c4cnc(CN[C@@H]5C[C@@H]5C(F)F)c(OC)n4)c3Cl)c2Cl)cnc1CNC[C@@H]1CCC(=O)N1 [compound 180] | 1030 |
| COc1nc(-c2cccc(-c3cccc(-c4cnc(CNC(C)(C)C(F)F)c(OC)n4)c3Cl)c2Cl)cnc1CNC[C@@H]1CCC(=O)N1 [compound 181] | 1510 |
| COc1nc(-c2cccc(-c3cccc(-c4cnc(CNC5CC5)c(OC)n4)c3Cl)c2Cl)cnc1CNC[C@@H]1CCC(=O)N1 [compound 184] | 763 |
| COCC1(NCc2ncc(-c3cccc(-c4cccc(-c5cnc(CNC[C@@H]6CCC(=O)N6)c(OC)n5)c4Cl)c3Cl)nc2OC)CCC1 [compound 185] | 480 |
| COc1nc(-c2cccc(-c3cccc(-c4cnc(CNC[C@H]5CCC[C@@H]5O)c(OC)n4)c3Cl)c2Cl)cnc1CNC[C@@H]1CCC(=O)N1 [compound 186] | 100 |
| COc1nc(-c2cccc(-c3cccc(-c4cnc(CN5C[C@H]6C[C@H]6[C@H]5CO)c(OC)n4)c3Cl)c2Cl)cnc1CNC[C@@H]1CCC(=O)N1 [compound 187] | 280 |
| COC(=O)NC1CCN(Cc2ncc(-c3cccc(-c4cccc(-c5cnc(CNC[C@@H]6CCC(=O)N6)c(OC)n5)c4Cl)c3Cl)nc2OC)C1 (some centres unmarked) [compound 188] | 120 |
| COc1nc(-c2cccc(-c3cccc(-c4cnc(CNCC5CN(C(C)=O)C5)c(OC)n4)c3Cl)c2Cl)cnc1CNCC1CN(C(C)=O)C1 [compound 189] | 94 |
| COc1nc(-c2cccc(-c3cccc(-c4cnc(CNC5CC6(C5)CN(C(C)=O)C6)c(OC)n4)c3Cl)c2Cl)cnc1CNC1CC2(C1)CN(C(C)=O)C2 (centres unmarked) [compound 190] | 200 |
| COc1nc(-c2cccc(-c3cccc(-c4cnc(CNC5CN(C(C)=O)C5)c(OC)n4)c3Cl)c2Cl)cnc1CNC[C@@H]1CCC(=O)N1 [compound 191] | 143 |

Next, values leading:

| IC50 [pM] | Structure (SMILES) |
| --- | --- |
| 156 | COc1nc(-c2cccc(-c3cccc(-c4cnc(CN5CC6(C5)CN(C(C)=O)C6)c(OC)n4)c3Cl)c2Cl)cnc1CNC[C@H]1CCC(=O)N1 [compound 192] |
| 133 | COc1nc(-c2cccc(-c3cccc(-c4cnc(CN5CCC6(CNC(=O)C6)C5)c(OC)n4)c3Cl)c2Cl)cnc1CNC[C@H]1CCC(=O)N1 (some centres unmarked) [compound 193] |
| 149 | COc1nc(-c2cccc(-c3cccc(-c4cnc(CNC5CCN(C(C)=O)C5)c(OC)n4)c3Cl)c2Cl)cnc1CNC[C@H]1CCC(=O)N1 (some centres unmarked) [compound 194] |
| 64 | COc1nc(-c2cccc(-c3cccc(-c4cnc(CN[C@H]5CC[C@H](NC(C)=O)CC5)c(OC)n4)c3Cl)c2Cl)cnc1CNC[C@H]1CCC(=O)N1 [compound 195] |
| 170 | COc1nc(-c2cccc(-c3cccc(-c4cnc(CNC[C@H]5CCC(=O)N5)c(OC)n4)c3Cl)c2Cl)cnc1CNCC1CNC(=O)C1 (some centres unmarked) [compound 196] |
| 230 | COc1nc(-c2cccc(-c3cccc(-c4cnc(CN5CCC6(CCC(=O)N6)C5)c(OC)n4)c3Cl)c2Cl)cnc1CNC[C@H]1CCC(=O)N1 (some centres unmarked) [compound 197] |
| 121 | COc1nc(-c2cccc(-c3cccc(-c4cnc(CN5CC[C@@H](NC(C)=O)C5)c(OC)n4)c3Cl)c2Cl)cnc1CNC[C@H]1CCC(=O)N1 [compound 198] |
| 126 | COc1nc(-c2cccc(-c3cccc(-c4cnc(CN[C@@H]5CNC(=O)C5)c(OC)n4)c3Cl)c2Cl)cnc1CNC[C@H]1CCC(=O)N1 [compound 199] |
| 132 | COc1nc(-c2cccc(-c3cccc(-c4cnc(CN[C@H]5CNC(=O)C5)c(OC)n4)c3Cl)c2Cl)cnc1CNC[C@H]1CCC(=O)N1 [compound 200] |
| 280 | COc1nc(-c2cccc(-c3cccc(-c4cnc(CNC[C@H]5CCC(=O)N5)c(OC)n4)c3Cl)c2Cl)cnc1CNCCc1ncc[nH]1 [compound 201] |
| 144 | COc1nc(-c2cccc(-c3cccc(-c4cnc(CNC5CCC6(CNC(=O)C6)C5)c(OC)n4)c3Cl)c2Cl)cnc1CNC[C@H]1CCC(=O)N1 (some centres unmarked) [compound 202] |
| 129 | COc1nc(-c2cccc(-c3cccc(-c4cnc(CN5CCC6(CCC(=O)N6)CC5)c(OC)n4)c3Cl)c2Cl)cnc1CNC[C@H]1CCC(=O)N1 [compound 203] |
| 110 | COc1nc(-c2cccc(-c3cccc(-c4cnc(CN5CC[C@H](NC(C)=O)C5)c(OC)n4)c3Cl)c2Cl)cnc1CNC[C@H]1CCC(=O)N1 [compound 204] |
| 79 | COc1nc(-c2cccc(-c3cccc(-c4cnc(CNC5CCCN(C(C)=O)C5)c(OC)n4)c3Cl)c2Cl)cnc1CNC[C@H]1CCC(=O)N1 (some centres unmarked) [compound 205] |
| 113 | COc1nc(-c2cccc(-c3cccc(-c4cnc(CNC5CCN(C(C)=O)CC5)c(OC)n4)c3Cl)c2Cl)cnc1CNC[C@H]1CCC(=O)N1 [compound 206] |
| 104 | COc1nc(-c2cccc(-c3cccc(-c4cnc(CN5CC6(CNC(=O)N6)C5)c(OC)n4)c3Cl)c2Cl)cnc1CNC[C@H]1CCC(=O)N1 [compound 207] |
| 223 | COc1nc(-c2cccc(-c3cccc(-c4cnc(CNC5CC6(C5)CN(C(C)=O)C6)c(OC)n4)c3Cl)c2Cl)cnc1CNC[C@H]1CCC(=O)N1 [compound 208] |
| 175 | COc1nc(-c2cccc(-c3cccc(-c4cnc(CN5CC6(C5)CN(C(C)=O)C6)c(OC)n4)c3Cl)c2Cl)cnc1CN1CC2(C1)CN(C(C)=O)C2 [compound 209] |
| 300 | COc1nc(-c2cccc(-c3cccc(-c4cnc(CNCC5(C)COC(=O)N5)c(OC)n4)c3Cl)c2Cl)cnc1CNC[C@@H]1CCC(=O)N1 (some centres unmarked) [compound 210] |
| 95 | COc1nc(-c2cccc(-c3cccc(-c4cnc(CNC[C@@H]5CCC(=O)N5)c(OC)n4)c3Cl)c2Cl)cnc1CNCCN1CCNC1=O [compound 211] |
| 480 | COc1nc(-c2cccc(-c3cccc(-c4cnc(CNC5CCc6cn[nH]c6C5)c(OC)n4)c3Cl)c2Cl)cnc1CNC[C@@H]1CCC(=O)N1 (some centres unmarked) [compound 212] |
| 840 | COc1nc(-c2cccc(-c3cccc(-c4cnc(CNCC5(C#N)CCC5)c(OC)n4)c3Cl)c2Cl)cnc1CNC[C@@H]1CCC(=O)N1 [compound 213] |
